In patent US20260374754A1, “N-((ISOQUINOLIN-6-YL)METHYL)-1H-PYRAZOLE-4-CARBOXAMIDE DERIVATIVES AS PLASMA KALLIKREIN INHIBITORS FOR THE TREATMENT OF HEREDITARY ANGIODEMA” (Takeda Pharmaceutical Company Limited, priority 2022, published 2026) one finds EC50 data, which are given here for 29 compounds.

Structures are written as SMILES. Structures can show the parent of a compound that is named as a salt. A value given as a limit tells only on which side of the number the result lay.

The target of one assay is human activated kallikrein enzyme (Homo sapiens, UniProt P03952). Put plainly: Inhibition of human activated plasma kallikrein, fluorogenic PFR-AMC substrate, 500 pM enzyme format. The class given is biochemical. Particulars: 500 pM activated kallikrein; 300 μM PFR-AMC; 30 min preincubation; 10 min room temperature; pH 7.5; read-out: Primary Dose Response Assay: Average EC50. The method in brief: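 500 pM activated kallikrein preincubated 30 min at room temperature with inhibitors in pH 7.5 Tris/EDTA/NaCl buffer with PEG-400 and Triton X-100. Reaction started with 300 μM PFR-AMC, run 10 min at room temperature; AMC fluorescence read at ex 380/em 460 nm.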
Chain of human activated kallikrein enzyme (P03952 391-638 limits assumed): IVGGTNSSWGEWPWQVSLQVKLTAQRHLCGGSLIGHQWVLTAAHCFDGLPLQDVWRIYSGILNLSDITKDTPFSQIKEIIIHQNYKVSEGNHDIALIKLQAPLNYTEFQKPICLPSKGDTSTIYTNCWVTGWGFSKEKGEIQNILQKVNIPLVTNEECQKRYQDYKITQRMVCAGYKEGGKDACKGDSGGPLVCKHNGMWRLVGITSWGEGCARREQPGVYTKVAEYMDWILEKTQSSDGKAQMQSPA
Chain of human activated kallikrein enzyme (P03952 20-390 partner limits assumed): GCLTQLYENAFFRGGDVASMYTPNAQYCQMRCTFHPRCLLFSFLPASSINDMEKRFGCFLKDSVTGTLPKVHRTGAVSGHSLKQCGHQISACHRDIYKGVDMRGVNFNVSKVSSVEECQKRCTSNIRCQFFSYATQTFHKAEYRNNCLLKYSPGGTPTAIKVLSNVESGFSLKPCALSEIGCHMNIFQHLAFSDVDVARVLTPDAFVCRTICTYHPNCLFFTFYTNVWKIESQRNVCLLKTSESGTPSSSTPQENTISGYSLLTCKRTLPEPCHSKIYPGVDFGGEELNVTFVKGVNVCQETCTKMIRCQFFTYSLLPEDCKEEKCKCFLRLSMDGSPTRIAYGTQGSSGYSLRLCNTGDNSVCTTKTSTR
For `Cc1cc2c(N)nccc2c(C)c1CNc1cc(OCc2ccc(Cn3ccccc3=O)cc2)cnn1` [Example 436, 1-(4-(((6-(((1-amino-5,7-dimethylisoquinolin-6-yl)methyl)amino)pyridazin-4-yl)oxy)methyl)benzyl)pyridin-2(1H)-one], the EC50 is less than 1 nM.

In the case of `COc1cccc2nc(Cn3cc(C(=O)NCc4c(C)cc5c(N)nccc5c4C)cn3)cn12` [Example 144, N-((1-amino-5,7-dimethylisoquinolin-6-yl)methyl)-1-((5-methoxyimidazo[1,2-a]pyridin-2-yl)methyl)-1H-pyrazole-4-carboxamide], the EC50 was less than 1 nM. For `Cc1cc2c(N)nccc2c(C)c1CNc1cc2c(ccn2Cc2ccc3ncc(Cl)cc3c2)cn1` [Example 518, 6-(((1-((3-chloroquinolin-6-yl)methyl)-1H-pyrrolo[3,2-c]pyridin-6-yl)amino)methyl)-5,7-dimethylisoquinolin-1-amine], the EC50 is more than 1000 nM. With `CCc1cc2c(N)nccc2c(C)c1CNC(=O)c1cnn(Cc2ccccc2)c1` [Example 173, N-((1-amino-7-ethyl-5-methylisoquinolin-6-yl)methyl)-1-benzyl-1H-pyrazole-4-carboxamide], the EC50 lay in the range of 10 to 100 nM. With `Cc1cc2c(N)nccc2c(C)c1CNc1cc(NCc2cn3c(C)c(Cl)ccc3n2)ncn1` [Example 330, N^4-((1-amino-5,7-dimethylisoquinolin-6-yl)methyl)-N^6-((6-chloro-5-methylimidazo[1,2-a]pyridin-2-yl)methyl)pyrimidine-4,6-diamine], the EC50 is less than 1 nM. On the same count and under the same terms, to `Cc1cc2c(N)nccc2c(C)c1CNc1cc(NCc2nc3ccccc3s2)ncn1` [Example 319, N^4-((1-amino-5,7-dimethylisoquinolin-6-yl)methyl)-N6-(benzo[d]thiazol-2-ylmethyl)pyrimidine-4,6-diamine] belongs 100 to 1000 nM. Same read-out and setting: to `Cc1cc(Cn2cc(C(=O)NCc3c(C)cc4c(N)nccc4c3C)cn2)cc(C)c1Cc1ccccn1` [Example 169, N-((1-amino-5,7-dimethylisoquinolin-6-yl)methyl)-1-(3,5-dimethyl-4-(pyridin-2-ylmethyl)benzyl)-1H-pyrazole-4-carboxamide] belongs less than 1 nM. `Cc1cc2c(N)nccc2c(C)c1CN1C(=O)c2ncc(NCc3cn4cc(C5CC5)ccc4n3)cc21` [Example 496, 7-((1-amino-5,7-dimethylisoquinolin-6-yl)methyl)-4-(((6-cyclopropylimidazo[1,2-a]pyridin-2-yl)methyl)amino)-2,7-diazabicyclo[4.2.0]octa-1,3,5-trien-8-one]: the EC50 lay in the range of 100 to 1000 nM.

For `Cc1cc2c(N)nccc2c(C)c1CNC(=O)c1cnn(Cc2nc3ccccc3n2C(F)F)c1` [Example 68, N-((1-amino-5,7-dimethylisoquinolin-6-yl)methyl)-1-((1-(difluoromethyl)-1H-benzo[d]imidazol-2-yl)methyl)-1H-pyrazole-4-carboxamide], the EC50 fell in the range of 10 to 100 nM. Turning to `Cc1cc2c(N)nccc2c(C)c1CNC(=O)c1cnn(Cc2cc3ccc(Cl)cc3s2)c1` [Example 81, N-((1-amino-5,7-dimethylisoquinolin-6-yl)methyl)-1-((6-chlorobenzo[b]thiophen-2-yl)methyl)-1H-pyrazole-4-carboxamide], the EC50 lay within 1 to 10 nM. Take `Cc1cc2c(N)nccc2c(C)c1CNc1ncccc1OCc1cn2cc(C3CC3)ccc2n1` [Example 289, 6-(((3-((6-cyclopropylimidazo[1,2-a]pyridin-2-yl)methoxy)pyridin-2-yl)amino)methyl)-5,7-dimethylisoquinolin-1-amine]: the EC50 is 100 to 1000 nM. `Cc1cc2c(N)nccc2c(C)c1CNC(=O)c1cnn(Cc2ccc3ccccc3c2)c1` [Example 56, N-((1-amino-5,7-dimethylisoquinolin-6-yl)methyl)-1-(naphthalen-2-ylmethyl)-1H-pyrazole-4-carboxamide]: the EC50 lay in the range of 1 to 10 nM.

As for `Cc1cc2c(N)nccc2c(C)c1CNC(=O)c1cnn(Cc2cn3cc(C4CC4)ccc3n2)c1` [Example 99, N-((1-amino-5,7-dimethylisoquinolin-6-yl)methyl)-1-((6-cyclopropylimidazo[1,2-a]pyridin-2-yl)methyl)-1H-pyrazole-4-carboxamide], the EC50 is less than 1 nM.

`Cc1cc2c(N)nccc2c(C)c1CNc1nsc(NCc2cn3cc(C4CC4)ccc3n2)n1` [Example 511, N^3-((1-amino-5,7-dimethylisoquinolin-6-yl)methyl)-N^5-((6-cyclopropylimidazo[1,2-a]pyridin-2-yl)methyl)-1,2,4-thiadiazole-3,5-diamine]: the EC50 lay within 1 to 10 nM. The same measure, in the same setting: to `Cc1cc2c(N)nccc2c(C)c1CNC(=O)c1cnn(Cc2cc(C(F)(F)F)cc(C(F)(F)F)c2)c1` [Example 95, N-((1-amino-5,7-dimethylisoquinolin-6-yl)methyl)-1-(3,5-bis(trifluoromethyl)benzyl)-1H-pyrazole-4-carboxamide] belongs 10 to 100 nM; to `Cc1cc2c(N)nccc2c(C)c1CNc1cc(OCc2ccc(Cn3ccccc3=O)cc2)ncn1` [Example 301, 1-(4-(((6-(((1-amino-5,7-dimethylisoquinolin-6-yl)methyl)amino)pyrimidin-4-yl)oxy)methyl)benzyl)pyridin-2(1H)-one], less than 1 nM. The same measure, in the same setting: to `Cc1cc2c(N)nccc2c(C)c1CNC(=O)c1cnn(Cc2ccc(Oc3cccn(C)c3=O)cc2)c1` [Example 18, N-((1-amino-5,7-dimethylisoquinolin-6-yl)methyl)-1-(4-((1-methyl-2-oxo-1,2-dihydropyridin-3-yl)oxy)benzyl)-1H-pyrazole-4-carboxamide] belongs less than 1 nM; to `Cc1cc2c(N)nccc2c(C)c1CNC(=O)c1cnn(Cc2ccc3c(Br)cccc3c2)c1` [Example 113, N-((1-amino-5,7-dimethylisoquinolin-6-yl)methyl)-1-((5-bromonaphthalen-2-yl)methyl)-1H-pyrazole-4-carboxamide], 1 to 10 nM; to `Cc1cc2c(N)nccc2c(C)c1CNc1cc(C(F)c2cn3cc(C4CC4)ccc3n2)ncn1` (centres unmarked) [Example 529, 6-(((6-((6-cyclopropylimidazo[1,2-a]pyridin-2-yl)fluoromethyl)pyrimidin-4-yl)amino)methyl)-5,7-dimethylisoquinolin-1-amine], 1 to 10 nM. On the same count and under the same terms, to `Cc1cc2c(N)nccc2c(C)c1CNc1cc(OCc2cn3c(=O)n(C4CC4)ccc3n2)ncn1` [Example 397, 2-(((6-(((1-amino-5,7-dimethylisoquinolin-6-yl)methyl)amino)pyrimidin-4-yl)oxy)methyl)-6-cyclopropylimidazo[1,2-c]pyrimidin-5(6H)-one] belongs 10 to 100 nM.

`Cc1cc2c(N)nccc2c(C)c1CNC(=O)c1cnn(Cc2ccccc2)c1` [Example 160, N-((1-amino-5,7-dimethylisoquinolin-6-yl)methyl)-1-benzyl-1H-pyrazole-4-carboxamide]: the EC50 was 100 to 1000 nM. As for `Cc1cc2c(N)nccc2c(C)c1CNc1cc(OC(C)c2ccc(Cn3cccn3)cc2)cnn1` (single isomer, unassigned) [Example 277, (S*)-6-(((5-(1-(4-((1H-pyrazol-1-yl)methyl)phenyl)ethoxy)pyridazin-3-yl)amino)methyl)-5,7-dimethylisoquinolin-1-amine], the EC50 fell in the range of 10 to 100 nM. On the same count and under the same terms, to `Cc1cc2c(N)nccc2c(C)c1CNc1cc(NCc2ccc(Cc3cnccn3)cc2)ncn1` [Example 338, N^4-((1-amino-5,7-dimethylisoquinolin-6-yl)methyl)-N^6-(4-(pyrazin-2-ylmethyl)benzyl)pyrimidine-4,6-diamine] belongs 1 to 10 nM; to `Cc1cc2c(N)nccc2c(C)c1CNC(=O)c1cnn(Cc2cn3c(Cl)c(C4CC4)ccc3n2)c1` [Example 148, N-((1-amino-5,7-dimethylisoquinolin-6-yl)methyl)-1-((5-chloro-6-cyclopropylimidazo[1,2-a]pyridin-2-yl)methyl)-1H-pyrazole-4-carboxamide], less than 1 nM; to `Cc1cc2c(N)nccc2c(C)c1CNc1cc2c(Cc3ccc4ccccc4c3)cn(C)c2cn1` [Example 524, 5,7-dimethyl-6-(((1-methyl-3-(naphthalen-2-ylmethyl)-1H-pyrrolo[2,3-c]pyridin-5-yl)amino)methyl)isoquinolin-1-amine], more than 1000 nM. Turning to `Cc1cc2c(N)nccc2c(C)c1CNc1cc(OCc2ccc(Cn3cccc(C4CC4)c3=O)cc2)ncn1` [Example 303, 1-(4-(((6-(((1-amino-5,7-dimethylisoquinolin-6-yl)methyl)amino)pyrimidin-4-yl)oxy)methyl)benzyl)-3-cyclopropylpyridin-2(1H)-one, formic acid salt], the concentration giving a half-maximal response (EC50) was in the range of 1 to 10 nM. Consider `Cc1cc2c(N)nccc2c(C)c1CNC(=O)c1cnn(Cc2ccc(N(C)C(=O)N(C)C)cc2)c1` [Example 22, N-((1-amino-5,7-dimethylisoquinolin-6-yl)methyl)-1-(4-(1,3,3-trimethylureido)benzyl)-1H-pyrazole-4-carboxamide], for which the EC50 lay within 1 to 10 nM.

Staying with this assay, now noted: Primary Dose Response Assay: Average EC50, 500 pM activated kallikrein; 300 μM PFR-AMC; 30 min preincubation; 10 min room temperature; pH 7.5.
Turning to `Cc1cc(CNc2cc(NCc3c(C)cc4c(N)nccc4c3C)ncn2)cc(C)c1CC(=O)N1CC2CC2C1` (centres unmarked) [Example 359, 2-(4-(((6-(((1-amino-5,7-dimethylisoquinolin-6-yl)methyl)amino)pyrimidin-4-yl)amino)methyl)-2,6-dimethylphenyl)-1-(3-azabicyclo[3.1.0]hexan-3-yl)ethan-1-one], the EC50 is less than 1 nM. The same measure, in the same setting: to `Cc1cc2c(N)nccc2c(C)c1CNC(=O)c1cn(Cc2cn3cc(C4CC4)ccc3n2)c2cccnc12` [Example I-485, N-((1-amino-5,7-dimethylisoquinolin-6-yl)methyl)-1-((6-cyclopropylimidazo[1,2-a]pyridin-2-yl)methyl)-1H-pyrrolo[3,2-b]pyridine-3-carboxamide] belongs 1 to 10 nM.
